From patent publication US20250346583A1, “NEW DERIVATIVES FOR TREATING TRPM3 MEDIATED DISORDERS” (Katholieke Universiteit Leuven, priority 2022, published 2025)

Target: T1, mouse TRPM3α2 (mTRPM3) ion channel (Mus musculus, UniProt J9SQF3)
T1 construct: expressed in transfected cells; host or cells: flip-in HEK293
Assay: TRPM3 ion channel driven Ca2+ uptake, Fluo-4 AM assay in overexpressing flip-in HEK293 cells
Type: cell-based
Conditions: inhibition of Ca2+ influx stimulated with Pregnenolone sulfate (PS) 50 μM
Description: Monitoring the TRPM3 Ion Channel Driven Ca^2+ Uptake.
In order to monitor the inhibition of the mouse TRPM3α2 (mTRPM3) ion channel by the compounds of the invention, a cellular system making use of an mTRPM3alpha2 or hTRPM3 overexpressing cell line (flip-in HEK293) was used. The TRPM3 channel was stimulated/opened with Pregnenolone sulfate (PS) (50 μM) which results in Ca^2+ influx.
For mTRPM3, the intracellular Ca^2+ was measured with a Calcium responsive dye, Fluor-4 AM ester (Invitrogen). Cells were cultured until a confluence of 80-90%, washed with Versene (Invitrogen) and detached from the surface by a short incubation with 0.05% Trypsin (Invitrogen). The trypsination process was stopped by the addition of complete cell culture medium (DMEM, glutamax,10% FCS, NEAA, Pen-Strep). Cells were collected and resuspended in Krebs buffer without Calcium at RT.
Prior the cell seeding (+2000 cells/well into a black, 384 well plate (Greiner)) the diluted compound was added in the assay plate, together with the PS dissolved in Krebs buffer containing Calcium. […] Directly after cell addition the plates were read on an Envision fluorescence reader (Perkin Elmer) by an Excitation of 485 nm and emission at 535 nm.
Channel inhibition was calculated compared to a non-PS stimulated control versus a condition stimulated with PS (50 μM) with vehicle. The ability of the compounds of the invention to inhibit this activity was determined as: Percentage inhibition=[1-((RFU determined for sample with test compound present - RFU determined for sample with positive control inhibitor) divided by (RFU determined in the presence of vehicle - RFU determined for sample with positive control inhibitor))]*100.
The activities of the Example compounds tested are depicted in the table below. The activity ranges A, B and C refer to IC50 values in the Fluo-4 AM assay as follows: “A”: IC50<1 μM; “B”: 1 μM<IC50<20 μM and “C”: IC50>20 μM

T1 sequence (J9SQF3 1-1709 isoform J9SQF3-12): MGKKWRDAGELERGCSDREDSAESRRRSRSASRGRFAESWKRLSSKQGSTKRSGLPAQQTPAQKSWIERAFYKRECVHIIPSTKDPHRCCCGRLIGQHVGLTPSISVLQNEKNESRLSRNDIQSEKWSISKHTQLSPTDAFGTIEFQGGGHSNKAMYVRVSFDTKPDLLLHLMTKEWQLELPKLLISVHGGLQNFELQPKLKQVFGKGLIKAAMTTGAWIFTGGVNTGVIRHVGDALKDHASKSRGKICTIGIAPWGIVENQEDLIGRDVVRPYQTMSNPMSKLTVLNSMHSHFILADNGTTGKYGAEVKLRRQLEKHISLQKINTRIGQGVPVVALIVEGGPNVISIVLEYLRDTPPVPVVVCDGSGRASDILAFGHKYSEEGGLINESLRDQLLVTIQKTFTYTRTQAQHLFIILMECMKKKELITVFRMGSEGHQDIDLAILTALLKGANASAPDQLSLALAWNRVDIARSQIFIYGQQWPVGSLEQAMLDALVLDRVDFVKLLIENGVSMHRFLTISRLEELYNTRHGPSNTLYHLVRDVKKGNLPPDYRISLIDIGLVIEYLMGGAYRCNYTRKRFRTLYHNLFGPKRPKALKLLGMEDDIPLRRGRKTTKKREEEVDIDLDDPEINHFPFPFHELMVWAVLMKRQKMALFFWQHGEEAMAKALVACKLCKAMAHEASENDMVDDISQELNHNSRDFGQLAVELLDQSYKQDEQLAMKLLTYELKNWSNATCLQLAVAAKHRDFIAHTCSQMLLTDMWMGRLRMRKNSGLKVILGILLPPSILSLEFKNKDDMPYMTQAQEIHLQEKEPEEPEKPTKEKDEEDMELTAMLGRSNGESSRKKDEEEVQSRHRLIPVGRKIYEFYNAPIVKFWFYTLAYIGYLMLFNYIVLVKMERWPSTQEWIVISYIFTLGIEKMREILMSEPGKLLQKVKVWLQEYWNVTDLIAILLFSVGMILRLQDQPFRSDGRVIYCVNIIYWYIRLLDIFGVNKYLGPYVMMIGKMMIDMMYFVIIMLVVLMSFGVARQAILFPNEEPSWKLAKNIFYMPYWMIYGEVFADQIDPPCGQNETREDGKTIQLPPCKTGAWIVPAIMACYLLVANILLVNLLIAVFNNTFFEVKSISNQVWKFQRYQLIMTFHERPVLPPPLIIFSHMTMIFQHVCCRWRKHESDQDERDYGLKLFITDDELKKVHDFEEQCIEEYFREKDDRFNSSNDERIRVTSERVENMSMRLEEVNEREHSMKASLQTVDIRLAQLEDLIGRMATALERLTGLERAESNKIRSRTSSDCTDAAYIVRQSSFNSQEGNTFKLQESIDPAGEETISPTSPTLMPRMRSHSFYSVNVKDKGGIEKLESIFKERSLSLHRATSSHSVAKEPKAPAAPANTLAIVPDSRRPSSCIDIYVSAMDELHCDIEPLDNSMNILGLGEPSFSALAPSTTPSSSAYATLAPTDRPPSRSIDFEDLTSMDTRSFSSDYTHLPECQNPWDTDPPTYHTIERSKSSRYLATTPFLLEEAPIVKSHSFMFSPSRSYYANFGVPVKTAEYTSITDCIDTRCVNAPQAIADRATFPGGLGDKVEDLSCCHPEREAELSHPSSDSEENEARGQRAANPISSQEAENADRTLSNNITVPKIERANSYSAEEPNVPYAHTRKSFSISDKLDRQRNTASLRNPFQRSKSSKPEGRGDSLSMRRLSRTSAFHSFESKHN

IC50	SMILES
1000 to 20000 nM	Cc1ncsc1COc1ccc2oc(C)c(C3(C(N)=O)CC3)c2c1 [Cpd 022, 1-{2-methyl-5-[(4-methyl-1,3-thiazol-5-yl)methoxy]-1-benzofuran-3-yl}cyclopropane-1-carboxamide]
> 20000 nM	Cc1ncsc1COc1ccc2oc(C)c(C3(N)CC3)c2c1 [Cpd 027, 1-{2-methyl-5-[(4-methyl-1,3-thiazol-5-yl)methoxy]-1-benzofuran-3-yl}cyclopropan-i-amine]
> 20000 nM	Cc1oc2ccc(OCc3ccccc3)cc2c1-c1nccc(CO)n1 [Cpd 032, {2-[5-(benzyloxy)-2-methyl-1-benzofuran-3-yl]pyrimidin-4-yl}methanol]
1000 to 20000 nM	Cc1oc2ccc(OCc3ccccc3)cc2c1C1(CO)CC1 [Cpd 021, {1-[5-(benzyloxy)-2-methyl-1-benzofuran-3-yl]cyclopropyl}methanol]
1000 to 20000 nM	Cc1ncsc1COc1ccc2oc(C)c(C3(C(=O)NCCO)CC3)c2c1 [Cpd 020, N-(2-hydroxyethyl)-1-{2-methyl-5-[(4-methyl-1,3-thiazol-5-yl)methoxy]-1-benzofuran-3-yl}cyclopropane-1-carboxamide]
1000 to 20000 nM	Cc1oc2ccc(OCc3c(F)cccc3Cl)cc2c1-c1nn[nH]n1 [Cpd 023, 5-{5-[(2-chloro-6-fluorophenyl)methoxy]-2-methyl-1-benzofuran-3-yl}-2H-1,2,3,4-tetrazole]
> 20000 nM	Cc1noc(-c2c(C)oc3ccc(OCc4c(F)cccc4Cl)cc23)n1 [Cpd 028, 5-{5-[(2-chloro-6-fluorophenyl)methoxy]-2-methyl-1-benzofuran-3-yl}-3-methyl-1,2,4-oxadiazole]
> 20000 nM	Cc1oc2ccc(OCc3ccccc3)cc2c1-c1cncc(CO)n1 [Cpd 031, {6-[5-(benzyloxy)-2-methyl-1-benzofuran-3-yl]pyrazin-2-yl}methanol]
1000 to 20000 nM	Cc1oc2ccc(OCc3ccccn3)cc2c1C1(N)CC1 [Cpd 024, 1-{2-methyl-5-[(pyridin-2-yl)methoxy]-1-benzofuran-3-yl}cyclopropan-i-amine]
> 20000 nM	Cc1oc2ccc(OCc3ccccc3)cc2c1-c1nccc(CC(F)(F)F)n1 [Cpd 030, 2-[5-(benzyloxy)-2-methyl-1-benzofuran-3-yl]-4-(2,2,2-trifluoroethyl)pyrimidine]
> 20000 nM	Cc1oc2ccc(OCc3ccccc3)cc2c1-c1cncc(CC(F)(F)F)n1 [Cpd 029, 2-[5-(benzyloxy)-2-methyl-1-benzofuran-3-yl]-6-(2,2,2-trifluoroethyl)pyrazine]
> 20000 nM	Cc1ncc(COc2ccc3oc(C)c(C4(N)CC4)c3c2)s1 [Cpd 026, 1-{2-methyl-5-[(2-methyl-1,3-thiazol-5-yl)methoxy]-1-benzofuran-3-yl}cyclopropan-i-amine]

Second part, the compound before the results:

SMILES	IC50
Cc1ncsc1COc1ccc2oc(C)c(C3(C#N)CC3)c2c1 [Cpd 011, 1-{2-methyl-5-[(4-methyl-1,3-thiazol-5-yl)methoxy]-1-benzofuran-3-yl}cyclopropane-i-carbonitrile]	< 1000 nM
Cc1oc2ccc(OCc3cccnc3C(F)(F)F)cc2c1C1(NC(=O)C(C)(C)O)CC1 [Cpd 009, 2-hydroxy-2-methyl-N-[1-(2-methyl-5-{[2-(trifluoromethyl)pyridin-3-yl]methoxy}-1-benzofuran-3-yl)cyclopropyl]propanamide]	< 1000 nM
Cc1oc2ccc(OCc3ccccc3)cc2c1C1(C#N)CC1 [Cpd 019, 1-[5-(benzyloxy)-2-methyl-1-benzofuran-3-yl]cyclopropane-1-carbonitrile]	1000 to 20000 nM
Cc1oc2ccc(OCc3cccnc3C(F)(F)F)cc2c1C1(CO)CC1 [Cpd 001, [1-(2-methyl-5-{[2-(trifluoromethyl)pyridin-3-yl]methoxy}-1-benzofuran-3-yl)cyclopropyl]methanol]	< 1000 nM
Cc1ncsc1COc1ccc2oc(C)c(-c3ncc(CO)o3)c2c1 [Cpd 002, (2-{2-methyl-5-[(4-methyl-1,3-thiazol-5-yl)methoxy]-1-benzofuran-3-yl}-1,3-oxazol-5-yl)methanol]	< 1000 nM
Cc1oc2ccc(OCc3cccnc3C(F)(F)F)cc2c1C1(NC(=O)CO)CC1 [Cpd 003, 2-hydroxy-N-[1-(2-methyl-5-{[2-(trifluoromethyl)pyridin-3-yl]methoxy}-1-benzofuran-3-yl)cyclopropyl]acetamide]	< 1000 nM
Cc1ncsc1COc1ccc2oc(C)c(C3(CO)CC3)c2c1 [Cpd 004, (1-{2-methyl-5-[(4-methyl-1,3-thiazol-5-yl)methoxy]-1-benzofuran-3-yl}cyclopropyl)methanol]	< 1000 nM
COCC(=O)NC1(c2c(C)oc3ccc(OCc4cccnc4C(F)(F)F)cc23)CC1 [Cpd 010, 2-methoxy-N-[1-(2-methyl-5-{[2-(trifluoromethyl)pyridin-3-yl]methoxy}-1-benzofuran-3-yl)cyclopropyl]acetamide]	< 1000 nM
Cc1oc2ccc(OCc3cccnc3C(F)(F)F)cc2c1C1(N)CC1 [Cpd 014, 1-(2-methyl-5-{[2-(trifluoromethyl)pyridin-3-yl]methoxy}-1-benzofuran-3-yl)cyclopropan-1-amine]	1000 to 20000 nM
Cc1oc2ccc(OCc3cccnc3C(F)(F)F)cc2c1C1(NS(=O)(=O)CC2CC2)CC1 [Cpd 013, 1-cyclopropyl-N-[1-(2-methyl-5-{[2-(trifluoromethyl)pyridin-3-yl]methoxy}-1-benzofuran-3-yl)cyclopropyl]methanesulfonamide]	< 1000 nM
Cc1oc2ccc(OCC3CC3)cc2c1C1(N)CC1 [Cpd 025, 1-[5-(cyclopropylmethoxy)-2-methyl-1-benzofuran-3-yl]cyclopropan-i-amine]	> 20000 nM
Cc1oc2ccc(OCc3cccnc3C(F)(F)F)cc2c1C1(NC(C)C(N)=O)CC1 (centres unmarked) [Cpd 015, 2-{[1-(2-methyl-5-{[2-(trifluoromethyl)pyridin-3-yl]methoxy}-1-benzofuran-3-yl)cyclopropyl]amino}propanamide]	1000 to 20000 nM
Cc1oc2ccc(OCc3cccnc3C(F)(F)F)cc2c1C1(CN)CC1 [Cpd 016, 1-[1-(2-methyl-5-{[2-(trifluoromethyl)pyridin-3-yl]methoxy}-1-benzofuran-3-yl)cyclopropyl]methanamine]	1000 to 20000 nM
Cc1oc2ccc(OCc3cccnc3C(F)(F)F)cc2c1C1(NS(C)(=O)=O)CC1 [Cpd 006, N-[1-(2-methyl-5-{[2-(trifluoromethyl)pyridin-3-yl]methoxy}-1-benzofuran-3-yl)cyclopropyl]methanesulfonamide]	< 1000 nM
Cc1oc2ccc(OCc3cccnc3C(F)(F)F)cc2c1C1(NS(=O)(=O)C2CC2)CC1 [Cpd 005, N-[1-(2-methyl-5-{[2-(trifluoromethyl)pyridin-3-yl]methoxy}-1-benzofuran-3-yl)cyclopropyl]cyclopropanesulfonamide]	< 1000 nM
COCCC(=O)NC1(c2c(C)oc3ccc(OCc4cccnc4C(F)(F)F)cc23)CC1 [Cpd 008, 3-methoxy-N-[1-(2-methyl-5-{[2-(trifluoromethyl)pyridin-3-yl]methoxy}-1-benzofuran-3-yl)cyclopropyl]propanamide]	< 1000 nM
Cc1ncsc1COc1ccc2oc(C)c(C3(NC(=O)CO)CC3)c2c1 [Cpd 017, 2-hydroxy-N-(1-{2-methyl-5-[(4-methyl-1,3-thiazol-5-yl)methoxy]-1-benzofuran-3-yl}cyclopropyl)acetamide]	1000 to 20000 nM
Cc1ncsc1COc1ccc2oc(C)c(-c3ncc(CO)[nH]3)c2c1 [Cpd 007, (2-{2-methyl-5-[(4-methyl-1,3-thiazol-5-yl)methoxy]-1-benzofuran-3-yl}-1H-imidazol-4-yl)methanol]	< 1000 nM
Cc1oc2ccc(OCc3cccnc3C(F)(F)F)cc2c1C1(NCC(N)=O)CC1 [Cpd 012, 2-{[1-(2-methyl-5-{[2-(trifluoromethyl)pyridin-3-yl]methoxy}-1-benzofuran-3-yl)cyclopropyl]amino}acetamide]	< 1000 nM
Cc1oc2ccc(OCc3cccnc3O)cc2c1C1=NC(CO)(CO)CO1 [Cpd 018, 3-[({3-[4,4-bis(hydroxymethyl)-4,5-dihydro-1,3-oxazol-2-yl]-2-methyl-1-benzofuran-5-yl}oxy)methyl]pyridin-2-ol]	1000 to 20000 nM
